Assay results from PubChem BioAssay (NCI).
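At the GI50, growth is halved. The concentration for full growth arrest is given as TGI.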

Tests used:
Experiment in all cases: growth of human tumour cells (NCI), 384-well format
[1] = system: 786-0 renal
[2] = system: A498 renal
[3] = system: A549 NSCLC
[4] = system: ACHN renal
[5] = system: BT-549 breast
[6] = system: CAKI-1 renal
[7] = system: CCRF-CEM leukemia
[8] = system: COLO 205 colon
[9] = system: DU-145 prostate
[10] = system: EKVX NSCLC
[11] = system: HCC-2998 colon
[12] = system: HCT-116 colon
[13] = system: HCT-15 colon
[14] = system: HL-60(TB) leukemia
[15] = system: HOP-62 NSCLC
[16] = system: HOP-92 NSCLC
[17] = system: HS 578T breast
[18] = system: HT29 colon
[19] = system: IGROV1 ovarian
[20] = system: K-562 leukemia
[21] = system: KM12 colon
[22] = system: LOX IMVI melanoma
[23] = system: M14 melanoma
[24] = system: MALME-3M melanoma
[25] = system: MCF7 breast
[26] = system: MDA-MB-231 breast
[27] = system: MDA-MB-468 breast
[28] = system: MOLT-4 leukemia
[29] = system: NCI-H226 lung
[30] = system: NCI-H23 lung
[31] = system: NCI-H322M lung
[32] = system: NCI-H460 NSCLC
[33] = system: NCI-H522 lung
[34] = system: NCI/ADR-RES ovarian
[35] = system: OVCAR-3 ovarian
[36] = system: OVCAR-4 ovarian
[37] = system: OVCAR-8 ovarian
[38] = system: PC-3 prostate
[39] = system: RPMI-8226 leukemia
[40] = system: RXF 393 renal
[41] = system: SF-268 CNS
[42] = system: SF-295 CNS
[43] = system: SF-539 CNS
[44] = system: SK-MEL-5 melanoma
[45] = system: SK-OV-3 ovarian
[46] = system: SN12C renal
[47] = system: SNB-19 CNS
[48] = system: SNB-75 CNS
[49] = system: SR leukemia
[50] = system: SW-620 colon
[51] = system: T-47D breast
[52] = system: TK-10 renal
[53] = system: U251 glioblastoma
[54] = system: UACC-257 melanoma
[55] = system: UACC-62 melanoma
[56] = system: UO-31 renal

Cn1nccc1Nc1nccc(-c2ccn([C@H](CO)c3ccc(Cl)c(F)c3)c(=O)c2)n1
GI50 [1]: 19.9 µM | TGI [1]: 58.7 µM | GI50 [2]: 18.1 µM | TGI [2]: 33.9 µM | GI50 [3]: 25.3 µM | TGI [3]: > 100 µM | GI50 [4]: 45 µM | TGI [4]: > 100 µM | GI50 [5]: 15.1 µM | TGI [5]: 34.6 µM | GI50 [6]: 15.5 µM | TGI [6]: > 100 µM | GI50 [7]: 4.29 µM | TGI [7]: 15 µM | GI50 [8]: 0.102 µM | TGI [8]: 12.9 µM | GI50 [9]: 18.3 µM | TGI [9]: 38.1 µM | GI50 [10]: 76.5 µM | TGI [10]: > 100 µM | GI50 [11]: 0.565 µM | TGI [11]: 12.1 µM | GI50 [12]: 1.78 µM | TGI [12]: 11.8 µM | GI50 [13]: 28.6 µM | TGI [13]: > 100 µM | GI50 [14]: 0.11 µM | TGI [14]: 13.1 µM | GI50 [15]: 19.5 µM | TGI [15]: 47.2 µM | GI50 [16]: 14.3 µM | TGI [16]: 28.2 µM | GI50 [17]: 18.8 µM | TGI [17]: 34.1 µM | GI50 [18]: 0.443 µM | TGI [18]: 20.7 µM | GI50 [19]: 14 µM | TGI [19]: 39.5 µM | GI50 [20]: 6.93 µM | TGI [20]: 21.7 µM | GI50 [21]: 18.6 µM | TGI [21]: > 100 µM | GI50 [22]: 1.08 µM | TGI [22]: 11.7 µM | GI50 [23]: 0.0794 µM | TGI [23]: 10.3 µM | GI50 [24]: 0.0289 µM | TGI [24]: 0.104 µM | GI50 [25]: 37.4 µM | TGI [25]: > 100 µM | GI50 [26]: 21.3 µM | TGI [26]: > 100 µM | GI50 [27]: 23.7 µM | TGI [27]: 48.5 µM | GI50 [28]: 11.6 µM | TGI [28]: 24 µM | GI50 [29]: 26.4 µM | TGI [29]: 64.8 µM | GI50 [30]: 0.899 µM | TGI [30]: 24 µM | GI50 [31]: 15.6 µM | TGI [31]: > 100 µM | GI50 [32]: 20.4 µM | TGI [32]: 45.1 µM | GI50 [33]: 2.66 µM | TGI [33]: 9.45 µM | GI50 [34]: 78.1 µM | TGI [34]: > 100 µM | GI50 [35]: 18.5 µM | TGI [35]: 54.3 µM | GI50 [36]: > 100 µM | TGI [36]: > 100 µM | GI50 [37]: 3.44 µM | TGI [37]: 10.7 µM | GI50 [38]: 29.8 µM | TGI [38]: 84.3 µM | GI50 [39]: 16.5 µM | TGI [39]: 31 µM | GI50 [40]: 21.2 µM | TGI [40]: 49 µM | GI50 [41]: 38.1 µM | TGI [41]: > 100 µM | GI50 [42]: 54 µM | TGI [42]: > 100 µM | GI50 [43]: 1.76 µM | TGI [43]: 3.55 µM | GI50 [44]: 0.409 µM | TGI [44]: 22.1 µM | GI50 [45]: 15.9 µM | TGI [45]: 33.3 µM | GI50 [46]: 1.67 µM | TGI [46]: 4.67 µM | GI50 [47]: 16.6 µM | TGI [47]: 52 µM | GI50 [48]: 22.6 µM | TGI [48]: 45.3 µM | GI50 [49]: 47.8 µM | TGI [49]: 85.2 µM | GI50 [50]: 1.65 µM | TGI [50]: 14.6 µM | GI50 [51]: 11.1 µM | TGI [51]: 54.5 µM | GI50 [52]: 21.2 µM | TGI [52]: 51.7 µM | GI50 [53]: 7.42 µM | TGI [53]: 20.9 µM | GI50 [54]: 0.209 µM | TGI [54]: > 100 µM | GI50 [55]: 0.0678 µM | TGI [55]: 14.8 µM | GI50 [56]: 30 µM | TGI [56]: > 100 µM
